In patent US20220152100A1, “METHODS FOR CONTROLLED ACTIVATION OR ELIMINATION OF THERAPEUTIC CELLS” (Bellicum Pharmaceuticals, Inc., priority 2014, published 2022):

Tested on: gene-modified allodepleted cells (SFG.iCasp9.2A.CD19)
Assay: AP20187-induced apoptosis of gene-modified allodepleted T cells (annexin V/7-AAD)
Type: cell-based, human
Method: Suicide gene functionality was assessed by adding a small molecule synthetic homodimerizer, AP20187 (Ariad Pharmaceuticals; Cambridge, Mass.), at 10 nM final concentration the day following CD19 immunomagnetic selection. Cells were stained with annexin V and 7-amino-actinomycin (7-AAD)(BD Pharmingen) at 24 hours and analyzed by flow cytometry. Cells negative for both annexin V and 7-AAD were considered viable, cells that were annexin V positive were apoptotic, and cells that were both annexin V and 7-AAD positive were necrotic. The percentage killing induced by dimerization was corrected for baseline viability as follows: Percentage killing=100%−(% Viability in AP20187-treated cells÷% Viability in non-treated cells).
Cells were maintained in T cell medium containing 50 U/ml IL-2 until 22 days after transduction. A portion of cells was reactivated on 24-well plates coated with […] OKT3 and 1 μg/ml anti-CD28 (Clone CD28.2, BD Pharmingen, San Jose, Calif.) for 48 to 72 hours. CD19 expression and suicide gene function in both reactivated and non-reactivated cells were measured on day 24 or 25 post transduction.
The day following immunomagnetic selection, 10 nM of the chemical inducer of dimerization, AP20187, was added to induce apoptosis, which appeared within 24 hours. […] Killing efficiency after correction for baseline viability was about 92.9%±3.8%. Large-scale CD19 selection produced cells that were killed with similar efficiency as small-scale selection: mean viability with and without AP20187, and percentage killing, in large and small scale were about 3.9%, about 84.0%, about 95.4% (n=3) and about 6.6%, about 79.3%, about 91.4% (n=5) respectively. AP20187 was non-toxic to non-transduced cells: viability with and without AP20187 was about 86%±9% and 87%±8% respectively (n=6).
To assess the stability of transgene expression and function, cells were maintained in T cell culture medium and low dose IL-2 (50 U/ml) until […] after transduction. A portion of cells was then reactivated with OKT3/anti-CD28. CD19 expression was analyzed by flow cytometry 48 to 72 hours later, and suicide gene function was assessed by treatment with 10 nM AP20187. The obtained are for cells from day 5 post transduction (ie, 1 day after CD 19 selection) and day 24 post transduction, with or without 48-72 hours of reactivation (5 experiments). In 2 experiments, CD25 selection was performed after OKT3/aCD28 activation to further enrich activated cells. Error bars represent standard deviation. * indicates p<0.05 when compared to cells from day 5 post transduction. By day 24, surface CD19 expression fell from about 98%±1% to about 88%±4% (p<0.05) with a parallel decrease in mean fluorescence intensity (MFI) from 793±128 to 478±107 (p<0.05) (see FIG. 13B). Similarly, there was a significant reduction in suicide gene function: residual viability was 19.6±5.6% following treatment with AP20187; after correction for baseline viability of 54.8±20.9%, this equated to killing efficiency of only 63.1±6.2%.
To determine whether the decrease in transgene expression with time was due to reduced transcription following T cell quiescence or to elimination of transduced cells, a portion of cells were reactivated on day 22 post transduction with OKT3 and anti-CD28 antibody. […] CD19 expression increased from about 88%±4% to about 93%±4% (p<0.01) and CD19 MFI increased from 478±107 to 643±174 (p<0.01). […] Killing of the CD25 negative fraction was 78.6±9.1%.

[1] = 10 nM, 24 hours, day after CD19 selection

CC[C@H](C(=O)N1CCCC[C@H]1C(=O)O[C@H](CCc1ccc(OC)c(OC)c1)c1cccc(OCC(=O)NCC(CNC(=O)COc2cccc([C@@H](CCc3ccc(OC)c(OC)c3)OC(=O)[C@@H]3CCCCN3C(=O)[C@@H](CC)c3cc(OC)c(OC)c(OC)c3)c2)CN(C)C)c1)c1cc(OC)c(OC)c(OC)c1 [AP20187]
killing efficiency after correction for baseline viability [1]: about 92.9%±3.8 | viable cells (annexin V and 7-AAD negative) [1]: about 5.5%±2.5 | killing efficiency (OKT3/aCD28-reactivated cells, day 24 or 25): ~84.6%±8.0 | mean viability (small-scale CD19 selection, n=5): about 6.6% | viability of non-transduced cells (with AP20187, n=6): about 86%±9
